Assay results as given in ChEMBL document CHEMBL3885861, “Open TG-GATES”.

Organism: Rattus norvegicus
Experiment: Open TG-GATES - Regimen: Single
Type: toxicity, organism-based, Sprague-Dawley
Set-up: regimen Single, gender Male, age 6 weeks
Settings: in vivo, po, route gavage; for TP / gamma-GTP / ALP / AST / BUN / CRE / Ca / Cl / DBIL / GLC / IP / K / LDH / Na / PL / RALB / TBIL / TC / TG: tissue Plasma; for APTT / Bas / Eos / Ht / MCH / MCHC / MCV / Mono / PT / Plat / RBC / Ret / WBC / Fbg: tissue Blood; for KIDNEY_L / KIDNEY_R / KIDNEY_TOTAL: tissue Kidney; for LIVER: tissue Liver
[1] = 200 mg/kg, 3 h, dose level Middle
[2] = 200 mg/kg, 6 h, dose level Middle
[3] = 200 mg/kg, 9 h, dose level Middle
[4] = 200 mg/kg, 24 h, dose level Middle

`CC(=O)Nc1nnc(S(N)(=O)=O)s1` [ACETAZOLAMIDE] gave a TP (60 mg/kg, 24 h, dose level Low) of 5.5 g/dL, a gamma-GTP (60 mg/kg, 24 h, dose level Low) of 1.2 IU/L and a TERMINAL_BW [1] of 208.6 g. It also gave an APTT [1] of 21.4 s, a Bas [1] of 0% and an Eos [1] of 1%. For the same compound, the Ht [1] was 42%, the MCH [1] was 21 pg and the MCHC [1] was 31.4%. The MCV [1] was 66.7 fL, the Mono [1] was 2.2% and the PT [1] was 16.8 s. For the same compound, the Plat [1] was 124.3 x10_4/uL, the RBC [1] was 629.8 x10_4/ul and the Ret [1] was 8.5%. It also gave a WBC [1] of 67.2 x10_2/uL, a KIDNEY_L [1] of 0.9 g and a KIDNEY_R [1] of 0.9 g. The KIDNEY_TOTAL [1] was 1.8 g, the LIVER [1] was 9.2 g and the ALP [1] was 1675.4 IU/L. For the same compound, the AST [1] was 71.2 IU/L, the BUN [1] was 12.2 mg/dL and the CRE [1] was 0.2 mg/dL. It also gave a Ca [1] of 11.1 mg/dL, a Cl [1] of 111.2 meq/L and a DBIL [1] of 0 mg/dL. The GLC [1] was 186.4 mg/dL, the IP [1] was 10.2 mg/dL and the K [1] was 3.7 meq/L. It also gave an LDH [1] of 191.6 IU/L, a Na [1] of 140.8 meq/L and a PL [1] of 143 mg/dL. For the same compound, the RALB [1] was 3.4 g/dL, the TBIL [1] was 0.012 mg/dL and the TC [1] was 80.4 mg/dL. It also gave a TP [1] of 6 g/dL, a gamma-GTP [1] of 1.2 IU/L and a TERMINAL_BW [2] of 207.7 g. It also gave an APTT [2] of 22.7 s, a Bas [2] of 0% and an Eos [2] of 1%. The Fbg [2] was 356 mg/dL, the Ht [2] was 42% and the MCH [2] was 21.2 pg. The MCHC [2] was 31.2%, the MCV [2] was 68 fL and the Mono [2] was 2.8%. For the same compound, the PT [2] was 16.9 s, the Plat [2] was 108.6 x10_4/uL and the RBC [2] was 617.6 x10_4/ul. The Ret [2] was 8.8%, the WBC [2] was 85 x10_2/uL and the KIDNEY_L [2] was 1 g. For the same compound, the KIDNEY_R [2] was 1 g, the KIDNEY_TOTAL [2] was 2 g and the LIVER [2] was 8.8 g. The ALP [2] was 1625.8 IU/L, the AST [2] was 71.2 IU/L and the BUN [2] was 11.6 mg/dL. It also gave a CRE [2] of 0.2 mg/dL, a Ca [2] of 11.1 mg/dL and a Cl [2] of 113.6 meq/L. It also gave a DBIL [2] of 0 mg/dL, a GLC [2] of 186.8 mg/dL and an IP [2] of 9.7 mg/dL. The K [2] was 4 meq/L, the LDH [2] was 180.8 IU/L and the Na [2] was 140 meq/L. The PL [2] was 135.8 mg/dL, the RALB [2] was 3.4 g/dL and the TBIL [2] was 0.024 mg/dL. It also gave a TC [2] of 84.2 mg/dL, a TG [2] of 21.4 mg/dL and a TP [2] of 6 g/dL. The gamma-GTP [2] was 1.6 IU/L, the TERMINAL_BW [3] was 200 g and the APTT [3] was 22.9 s. For the same compound, the Bas [3] was 0%, the Eos [3] was 0.8% and the Fbg [3] was 349.4 mg/dL. The Ht [3] was 43.2%, the MCH [3] was 20.8 pg and the MCHC [3] was 31%. For the same compound, the MCV [3] was 67.3 fL, the Mono [3] was 1.8% and the PT [3] was 16.3 s. For the same compound, the Plat [3] was 127.1 x10_4/uL, the RBC [3] was 644 x10_4/ul and the Ret [3] was 8.8%. The WBC [3] was 68.1 x10_2/uL, the KIDNEY_L [3] was 0.9 g and the KIDNEY_R [3] was 1 g. The KIDNEY_TOTAL [3] was 1.9 g, the LIVER [3] was 7.8 g and the ALP [3] was 1777.2 IU/L. For the same compound, the AST [3] was 61.6 IU/L, the BUN [3] was 13.2 mg/dL and the CRE [3] was 0.2 mg/dL. It also gave a Ca [3] of 11 mg/dL, a Cl [3] of 114.4 meq/L and a DBIL [3] of 0 mg/dL. For the same compound, the GLC [3] was 175 mg/dL, the IP [3] was 9.7 mg/dL and the K [3] was 3.8 meq/L. It also gave an LDH [3] of 182.6 IU/L, a Na [3] of 139 meq/L and a PL [3] of 122.4 mg/dL. For the same compound, the RALB [3] was 3.5 g/dL, the TBIL [3] was 0.026 mg/dL and the TC [3] was 72.4 mg/dL. The TG [3] was 13.8 mg/dL, the TP [3] was 6.1 g/dL and the gamma-GTP [3] was 1.4 IU/L. The TERMINAL_BW [4] was 205.9 g, the APTT [4] was 21.2 s and the Bas [4] was 0%. The Eos [4] was 1%, the Fbg [4] was 349 mg/dL and the Ht [4] was 40.8%. The MCH [4] was 20.9 pg, the MCV [4] was 62.9 fL and the Mono [4] was 2%. The PT [4] was 16.8 s, the Plat [4] was 132.1 x10_4/uL and the RBC [4] was 649.2 x10_4/ul. It also gave a Ret [4] of 8.1%, a WBC [4] of 101.2 x10_2/uL and a KIDNEY_L [4] of 1 g. The KIDNEY_R [4] was 1 g, the KIDNEY_TOTAL [4] was 1.9 g and the LIVER [4] was 8.5 g. For the same compound, the ALP [4] was 1929.2 IU/L, the AST [4] was 53.6 IU/L and the BUN [4] was 21.6 mg/dL. For the same compound, the CRE [4] was 0.2 mg/dL, the Ca [4] was 10.8 mg/dL and the Cl [4] was 114.4 meq/L. For the same compound, the DBIL [4] was 0 mg/dL, the GLC [4] was 189.6 mg/dL and the IP [4] was 7.7 mg/dL. It also gave a K [4] of 3.6 meq/L, an LDH [4] of 222.4 IU/L and a Na [4] of 142.2 meq/L. It also gave a PL [4] of 136.2 mg/dL, an RALB [4] of 3.2 g/dL and a TBIL [4] of 0.016 mg/dL. The TC [4] was 86.4 mg/dL and the TG [4] was 44.6 mg/dL.
